Laboratory results published in PMC6346638, “Recognition of Peptidoglycan Fragments by the Transpeptidase PBP4 From Staphylococcus aureus” (Frontiers in Microbiology, 2019).
Entries after “also recorded” stand apart in the source; their conditions may differ. Non-standard residues stand in square brackets, D forms with d. No end group written: not given here.

Key:
[1] = system: ceftobiprole-resistant Staphylococcus aureus strain (CRB); conditions: pbp4 mutations giving E183A and F241R; ref Banerjee et al., 2010; cited from earlier work
Text: The replacement of E183 by an alanine disrupts the Van-der-Waals interaction between this residue and ...

PBP4(S75C) [2] = assay: X-ray crystallography, ligand soaking of PBP4(S75C) crystals; assay type: binding, Staphylococcus aureus; conditions: soak with 1 mM ampicillin and 8 mM pentapeptide, 40–60 min; 1.86 Å
Method: PBP4(S75C) was crystallized using the sitting drop vapor diffusion method with streak seeding. Protein at 25–35 mg mL^−1 was added to precipitant solution (8 mM zinc chloride, 80 mM sodium acetate pH 5, 100 mM sodium fluoride, and 16% polyethylene glycol 6000) in a 1:1 (v/v) ratio and incubated at 23°C. Immediately after mixing the protein and precipitant solution, the drops were streak-seeded with a housecat whisker that had been swished through a drop containing PBP4(S75C) crystals. […] Crystals were then promptly harvested and stored in liquid nitrogen.
Data collection was performed under cryogenic temperatures (100 K) at the Advanced Light Source synchrotron (U.C. Berkeley) on beamline 5.0.2. Data from one crystal that diffracted to 1.9 Å resolution were processed using Xia2 (Winter et al., [2013]) and XDS (Kabsch, [2010]) with a space group of C121 and merged with Aimless in the CCP4 software package (Winn et al., [2011]). Phaser (McCoy et al., [2007]) was employed to solve the structure by molecular replacement using PDB ID 5TXI as the starting model. The Phenix suite of programs was used for model generation and refinement (Adams et al., [2010]). Briefly, AutoBuild was used with several iterative rounds of manual manipulation of the model with Coot (Emsley et al., [2010]) followed by refinement with Phenix.refine with TLS being used in the later stages of refinement.

PBP4 [3] = assay: X-ray crystallography, ligand soaking of PBP4 crystals; assay type: binding, Staphylococcus aureus; conditions: soaking with ampicillin and synthetic pentapeptide stem
[4] = system: S. aureus laboratory mutant 27s; conditions: deletion of PBP4 in mutant 27s; ref Leski and Tomasz, 2005; cited from earlier work
Text: S. aureus PBP4 is an unusual class C PBP showing TPase activity in vivo (Loskill et al., [2014]; Hamilton et al., [2017]) and in vitro (Qiao et al., [2014]; Srisuknimit et al., [2017]) in addition to its expected CPase activity.

PBP4(S75C) [5] = assay: Liquid-state NMR titration (15N-BEST-TROSY chemical shift perturbation); assay type: binding, Staphylococcus aureus; conditions: lactoyl-tetrapeptide up to 52 molar equivalents, 326 μM protein; 25°C, 50 mM potassium phosphate pH 6.5
Method: NMR Titration Experiments
Interaction studies with ^15N-labeled PBP4(S75C) and different substrates were monitored by superimposition of ^15N-BEST-TROSY spectra at 25°C for different substrate-to-protein ratio. Synthetic peptide stems and peptidoglycan fragments were extensively dialyzed against water using a Spectra/PorTM dialysis membrane with a 100–500 Da cutoff (Spectrum Laboratories, Inc.) and lyophilized before preparation of a few-mM stock solution in the protein buffer, with 50 mM potassium phosphate at pH 6.5. A 326-μM solution of PBP4(S75C) was titrated with 2, 8, 22, and 52 molar equivalents of tetrapeptide. […] CcpNmr was used to monitor protein chemical shift perturbations (CSP) for every assigned amide resonance by superimposition of the ^15N-BEST-TROSY spectra. CSPs (Δδ) were calculated on a per-residue basis for the highest substrate-to-protein ratio as follows:
where γN and γH are the ^1H and ^15N gyromagnetic ratios, respectively, and δ^XPBP4(S75C):sub , and δ^XPBP4(S75C) are the protein resonance chemical shift value in the presence and absence, respectively, of the substrate at the highest ratio.
The following substrates were added at 25 °C on 150 -µM PBP4(S75C) solution
in 50 mM potassium phosphate buffer, pH 6.5: (A) Tetrapeptide at approximately 52 molar […]
overlapped residues, for which CSPs could not be determined.

PBP4(S75C) [6] = assay: PBP4(S75C) acylation by imipenem, native mass spectrometry; assay type: binding, Staphylococcus aureus; conditions: 1.25 mM imipenem, ~23°C, 30 min, pH 6; MS
Method: For mass spectrometry analysis, samples were thawed and diluted 500 times in 5% acetonitrile and 0.1% formic acid. 5 μL of each sample was injected onto a 5-mm C4 column connected to a Waters Xevo GS-2 QTof mass spectrometer via a NanoAquity UPLC system. Samples were eluted in a 2-min gradient from 5 to 100% acetonitrile at a flow rate of 20 μL min^−1. Mass spectra (Supplementary Figure S3) were summed and peak masses deconvoluted using Waters' MassLynx software (V4.1).

PBP4 [7] = conditions: 10 μM PBP4, 10 mM Tris/HCl pH 7.5, 10 mM MgCl2, 0.1% Triton X-100, 37°C overnight; HPLC
Method: Assays were carried out in a final volume of 50 μL containing 10 mM Tris/HCl at pH 7.5, 10 mM MgCl2, 0.1% Triton X-100, and 10 μM PBP4 or PBP4(S75C). A ~5 mg mL^−1 suspension of PG or 25 μL of a ~5 mg mL^−1 solution of muropeptides were added and the reaction mixture was incubated at 37°C overnight. The enzymatic reaction was stopped by boiling the samples for 10 min. Muropeptides were reduced and analyzed by HPLC as described (Boneca et al., [1997]).

[8] = biological target: 15N-labeled PBP4(S75C) from Staphylococcus aureus, His-tag not cleaved (NMR sample) (S. aureus); assay: NMR titration; 15N-BEST-TROSY spectra at 25°C; 326 μM 15N-labeled PBP4(S75C) titrated with 2, 8, 22 and 52 molar equivalents of unlabeled tetrapeptide; 50 mM potassium phosphate pH 6.5

In the case of `Nc1nc(/C(=N/O)C(=O)N[C@@H]2C(=O)N3C(C(=O)O)=C(/C=C4\CCN([C@@H]5CCNC5)C4=O)CS[C@H]23)ns1` [ceftobiprole], the “resistance of CRB strain” value [1] is given as “resistant”.

With “HO-D-Lac-L-Ala-D-iGln-[L-Lys(Gly)5]-D-Ala-D-Ala-COOH [pentapeptide, synthetic branched lactoyl-peptide resembling the native S. aureus PG stem]” the “electron density of soaked ligand, PBP4(S75C) crystals” value (PBP4(S75C) [2]) was “unable to identify electron density” and the “electron density of soaked ligand, PBP4 crystals” value (PBP4 [3]) was “unable to identify electron density”.

In the case of `CO/N=C(\C(=O)N[C@@H]1C(=O)N2C(C(=O)O)=CCS[C@H]12)c1csc(N)n1` [ceftizoxime], the “susceptibility on deletion of PBP4” value [4] is listed as “increase in ceftizoxime susceptibility”.

In the case of “HO-D-Lac-L-Ala-D-iGln-L-Lys(Gly)5-D-Ala-COOH [lactoyl-tetrapeptide]”, the “chemical shift perturbations for the amide resonances of PBP4(S75C)” value (PBP4(S75C) [5]) is reported as “did not create any significant chemical shift perturbations”.

In the case of `CC1(C)S[C@@H]2[C@H](NC(=O)[C@H](N)c3ccccc3)C(=O)N2[C@H]1C(=O)O` [ampicillin], the “electron density of soaked ligand, PBP4(S75C) crystals” value (PBP4(S75C) [2]) is reported as “unable to identify electron density” and the “electron density of soaked ligand, PBP4 crystals” value (PBP4 [3]) is reported as “unable to identify electron density”.

In the case of `C[C@@H](O)[C@H]1C(=O)N2C(C(=O)O)=C(SCCN=CN)C[C@H]12` [imipenem], the “acylation of PBP4(S75C)” value (PBP4(S75C) [6]) is reported as “binds covalently to PBP4S75C, to form a stable acylenzyme; also recorded: sensitive to acylation”.

For “disaccharide pentapeptide(Gly5) [disaccharide pentapeptide(Gly5) (peak5)]”, the “DD-CPase activity of PBP4: conversion of monomeric muropeptide” value (PBP4 [7]) was “nearly quantitatively converted to disaccharide tetrapeptide(Gly5) (peak A)”.

B1: HO-D-Lac-L-Ala-D-iGln-L-Lys(Gly)5-D-Ala-COOH tetrapeptide (peptide)
chain 1: {HO‑D‑Lac}-A[diGln]K[dA]-OH
chain 2: GGGGG
modifications: not fully specified (some residues); also: chain 2 (Gly)5 attached to Lys side chain
Work on B1 yielded a Kd [8] of over 110 mM.
